Measured values reported in patent US12622910B2, “Inhibitors of Bruton's tyrosine kinase and methods of their use” (Janssen Pharmaceutica NV, priority 2021, dated 2026).

Test: Phase 1 first-in-human study, safety (TEAEs)
Assay type: in vivo
Description: Study Participants—Volunteers aged 18-58 years, with a body mass index (BMI) of 18-30 kg/m^2, body weight ≥50 kg, and who were considered healthy based on medical history, physical examination, clinical laboratory evaluation, and 12-lead electrocardiogram (ECG) were enrolled in this study. Females were required to be surgically sterile or postmenopausal. Key exclusion criteria were history of, or current, clinically significant medical illness and history of malignancy within 5 years.
Study Design—This phase 1, randomized, double-blind, placebo-controlled, single-center study (NCT03607513; EudraCT 2018-000428-32) was conducted between July 2018 and August 2019 at the Janssen Clinical Pharmacology Unit in Merksem, Belgium.The study comprised two distinct parts; Part 1 examined SAD of compound of Formula (III) and Part 2 assessed MAD of compound of Formula (III).
Safety, tolerability, PK, and BTKO were assessed for six doses of compound of Formula (III) oral solution (4, 12, 36, 100, 200, 400 mg) in participants under fasted conditions. The SAD part comprised 10 cohorts of 8 participants each (FIG. 1). In each cohort receiving compound of Formula (III) oral solution (Cohorts 1-9), 6 participants were randomized to receive compound of Formula (III) and 2 to receive placebo. All participants in Cohort 10 received compound of Formula (III) as an oral capsule. All 10 cohorts included 2 sentinel participants who were dosed ˜24 hours prior to the rest of the cohort. In cohorts receiving compound of Formula (III) oral solution, 1 sentinel participant received compound of Formula (III) and the other received placebo.
Six male escalating dose cohorts received a single oral dose of 4, 12, 36, 100, 200, 400 mg compound of Formula (III) or placebo solution under fasted conditions. Gender effects were assessed in 2 female cohorts whose participants received either a 36 or 100 mg dose of compound of Formula (III) or placebo as an oral solution under fasted conditions. Food effects were evaluated in a male cohort receiving compound of Formula (III) 100 mg or placebo as an oral solution after a high-fat breakfast.
Safety, tolerability, and PK of a solid dose formulation of compound of Formula (III) were assessed in an additional male cohort (Cohort 10) that received 3×35 mg (105 mg) of compound of Formula (III) in the fasted state. Since all the participants received the same dose of compound of Formula (III), this cohort was not blinded.
Safety, tolerability, PK, and BTKO following multiple compound of Formula (III) doses were evaluated in 3 dose escalation cohorts with a total of 18 participants (males: 9, females: 9) receiving active study drug. In each cohort, 3 males and 3 females were randomized to receive 36 mg once-daily (QD), 100 mg QD, or 200 mg QD compound of Formula (III) oral solution and 3 participants (males: 2; female: 1) to receive placebo. Two male participants in each cohort served as sentinel participants: one received compound of Formula (III) and other received placebo ˜48 hours prior to other participants in the cohort. All safety and tolerability data (through the follow-up visit), PK data (through at least 24 hours after last dose administration), and all available PD data were reviewed from each cohort before a decision was made to dose escalate.
Safety—Safety evaluations were based upon the type, incidence, and severity of treatment-emergent adverse events (TEAEs) reported throughout the study, and concomitant medication reporting, clinical laboratory tests, physical examinations, vital sign measurements, and ECGs assessed at pre-defined time points. The TEAEs and serious TEAEs were coded using the Medical Dictionary for Regulatory Activities (MedDRA Version 21.0) and summarized by system-organ class (SOC) and preferred terms.

## C=CC(=O)N[C@H]1CCC[C@H]1NC(=O)c1sc2nccc3c2c1NC(=O)N3c1cnc(CC(C)C)cc1C (atropisomer, axis not shown) [compound of Formula (III), N-((1R,2S)-2-Acrylamidocyclopentyl)-5-(S)-(6-isobutyl-4-methylpyridin-3-yl)-4-oxo-4,5-dihydro-3H-1-thia-3,5,8-triazaacenaphthylene-2-carboxamide]
Part 1, 4 mg fasted
  Administration site irritation, n (%): 1
  Headache, n (%): 1
  Patients with ≥1 TEAEs, n (%): 2
Part 1, 12 mg fasted
  Administration site irritation, n (%): 0
  Headache, n (%): 2
  Patients with ≥1 TEAEs, n (%): 3
Part 1, 36 mg fasted
  Administration site irritation, n (%): 0
  Headache, n (%): 2
  Patients with ≥1 TEAEs, n (%): 4
Part 1, 100 mg fasted
  Administration site irritation, n (%): 0
  Headache, n (%): 0
  Patients with ≥1 TEAEs, n (%): 4
Part 1, 100 mg fed
  Administration site irritation, n (%): 0
  Headache, n (%): 1
  Patients with ≥1 TEAEs, n (%): 1
Part 1, 105 mg solid
  Administration site irritation, n (%): 0
  Headache, n (%): 1
  Patients with ≥1 TEAEs, n (%): 3
Part 1, 200 mg fasted
  Administration site irritation, n (%): 1
  Headache, n (%): 1
  Patients with ≥1 TEAEs, n (%): 4
Part 1, 400 mg fasted
  Administration site irritation, n (%): 0
  Headache, n (%): 0
  Patients with ≥1 TEAEs, n (%): 3
Part 1, all treated
  headache, incidence: 13.3%
  nasal congestion, incidence: 5%
Part 1, total N = 60
  Administration site irritation, n (%): 2(3.3)
  Headache, n (%): 8 (13.3)
Part 2, 36 mg
  Abdominal discomfort, n (%): 1 (16.7)
  Abdominal pain, n (%): 0
  Abnormal dreams, n (%): 0
  Administration site irritation, n (%): 1 (16.7)
  Back pain, n (%): 1 (16.7)
  Cough, n (%): 0
  Dehydration, n (%): 0
  Diarrhea, n (%): 0
  Dizziness, n (%): 0
  Dysgeusia, n (%): 0
  Fatigue, n (%): 0
  Flatulence, n (%): 1 (16.7)
  Headache, n (%): 0
  Hot flush, n (%): 0
  Increased bronchial secretion, n (%): 0
  Injection site hematoma, n (%): 0
  Injection site reaction, n (%): 1 (16.7)
  Lipase increased, n (%): 0
  Myalgia, n (%): 0
  Nasopharyngitis, n (%): 0
  Nausea, n (%): 0
  Oral dysaesthesia, n (%): 0
  Oropharyngeal pain, n (%): 0
  Paresthesia, n (%): 2 (33.3)
  Patients with ≥1 TEAEs, n (%): 4 (66.7)
  Regurgitation, n (%): 1 (16.7)
  Skin irritation, n (%): 0
  Skin reaction, n (%): 1 (16.7)
  Somnolence, n (%): 0
  Vertigo, n (%): 0
  Vessel puncture site hematoma, n (%): 0
  Vision blurred, n (%): 0
Part 2, 100 mg
  Abdominal discomfort, n (%): 1 (16.7)
  Abdominal pain, n (%): 0
  Abnormal dreams, n (%): 0
  Administration site irritation, n (%): 2 (33.3)
  Back pain, n (%): 0
  Cough, n (%): 0
  Dehydration, n (%): 0
  Diarrhea, n (%): 1 (16.7)
  Dizziness, n (%): 0
  Dysgeusia, n (%): 0
  Fatigue, n (%): 0
  Flatulence, n (%): 0
  Headache, n (%): 0
  Hot flush, n (%): 1 (16.7)
  Increased bronchial secretion, n (%): 0
  Injection site hematoma, n (%): 2 (33.3)
  Injection site reaction, n (%): 1 (16.7)
  Lipase increased, n (%): 0
  Myalgia, n (%): 1 (16.7)
  Nasopharyngitis, n (%): 0
  Nausea, n (%): 0
  Oral dysaesthesia, n (%): 0
  Oropharyngeal pain, n (%): 0
  Paresthesia, n (%): 0
  Patients with ≥1 TEAEs, n (%): 5 (83.3)
  Regurgitation, n (%): 0
  Skin irritation, n (%): 0
  Skin reaction, n (%): 0
  Somnolence, n (%): 1 (16.7)
  Vertigo, n (%): 0
  Vessel puncture site hematoma, n (%): 1 (16.7)
  Vision blurred, n (%): 0
Part 2, 200 mg
  Abdominal discomfort, n (%): 0
  Abdominal pain, n (%): 1 (16.7)
  Abnormal dreams, n (%): 0
  Administration site irritation, n (%): 0
  Back pain, n (%): 0
  Cough, n (%): 0
  Dehydration, n (%): 0
  Diarrhea, n (%): 0
  Dizziness, n (%): 1 (16.7)
  Dysgeusia, n (%): 0
  Fatigue, n (%): 1 (16.7)
  Flatulence, n (%): 0
  Headache, n (%): 1 (16.7)
  Hot flush, n (%): 1 (16.7)
  Increased bronchial secretion, n (%): 0
  Injection site hematoma, n (%): 0
  Injection site reaction, n (%): 0
  Lipase increased, n (%): 0
  Myalgia, n (%): 0
  Nasopharyngitis, n (%): 0
  Nausea, n (%): 0
  Oral dysaesthesia, n (%): 0
  Oropharyngeal pain, n (%): 0
  Paresthesia, n (%): 0
  Patients with ≥1 TEAEs, n (%): 5 (83.3)
  Regurgitation, n (%): 1 (16.7)
  Skin irritation, n (%): 0
  Skin reaction, n (%): 1 (16.7)
  Somnolence, n (%): 0
  Vertigo, n (%): 0
  Vessel puncture site hematoma, n (%): 0
  Vision blurred, n (%): 1 (16.7)
Part 2, 200 mg group, after 8 days
  participants discontinued due to a TEAE (mild transaminases increased): 1
Part 2, all treated [2/18]
  abdominal discomfort, back pain, hot flush, paresthesia, regurgitation, skin reaction: incidence of each: 11.1%
Part 2, all treated [3/18]
  administration site irritation, incidence: 16.7%
Part 2, total N = 18
  Abdominal discomfort, n (%): 2 (11.1)
  Abdominal pain, n (%): 1 (5.6)
  Abnormal dreams, n (%): 0
  Administration site irritation, n (%): 3 (16.7)
  Back pain, n (%): 1 (16.7)
  Cough, n (%): 0
  Dehydration, n (%): 0
  Diarrhea, n (%): 1 (5.6)
  Dizziness, n (%): 1 (5.6)
  Dysgeusia, n (%): 0
  Fatigue, n (%): 1 (5.6)
  Flatulence, n (%): 1 (5.6)
  Headache, n (%): 1 (5.6)
  Hot flush, n (%): 2 (11.1)
  Increased bronchial secretion, n (%): 0
  Injection site hematoma, n (%): 2 (11.1)
  Injection site reaction, n (%): 2 (11.1)
  Lipase increased, n (%): 0
  Myalgia, n (%): 0
  Nasopharyngitis, n (%): 0
  Nausea, n (%): 0
  Oropharyngeal pain, n (%): 0
  Paresthesia, n (%): 2 (11.1)
  Regurgitation, n (%): 2 (11.1)
  Skin irritation, n (%): 0
  Skin reaction, n (%): 2 (11.1)
  Somnolence, n (%): 1 (5.6)
  Vertigo, n (%): 0
  Vessel puncture site hematoma, n (%): 1 (5.6)
  Vision blurred, n (%): 1 (5.6)
Parts 1 and 2
  serious TEAEs: No serious TEAEs
  severity of TEAEs: mild to moderate
